Experimental data: patent EP3530280B1, “VETERINARY COMPOSITION FOR MANUFACTURING A SEMINAL ADDITIVE USEFUL FOR ARTIFICIAL INSEMINATION IN ANIMALS” (Universidad De León, priority 2016, dated 2020)

Tested on: swine
Assay: Field studies of semen additive in swine artificial insemination (fecundity, birth fertility, prolificacy)
Type: in vivo
Details: Experimental Groups, amount per dose as given in the Composition column
Protocol: In order to examine the effect of the prepared pharmaceutical composition in Example 1 above, for use thereof in swine artificial insemination, field studies were carried out about the effects on fecundity, birth fertility and prolificacy (mean of the total piglets being born (either dead or alive) per delivery). Tables 1 and 2 show the results of the studies being carried out, observing how there are differences being statistically significant in all the experimental groups with respect to control groups.
The statistical characters of fecundity (%fecundity), prolificacy (N.T.), number of alive births (N.V.) and mortality (% of N.M. against N.T.), were tested on factorial ANOVA, LSD Fisher and SAS package (Statistical Analysis System). Table 1. Effects on fecundity and birth fertility

[1] = additive applied to seminal doses for swine artificial insemination

Oxytocin
prolificacy (mean of the total piglets being born (either dead or alive) per delivery) (Mean ± e.s. (n)): 14.30 ± 0.29 (154)
Birth Fertility (%) [1]: 88.89%
Fecundity (%) [1]: 90.26%
